Measured values as given in patent US20130065936A1, “MODULATION OF BIOACTIVE EPOXY-FATTY ACID LEVELS BY PHOSPHODIESTERASE INHIBITORS” (THE REGENTS OF THE UNIVERSITY OF CALIFORNIA, priority 2010, published 2013).

Experiments:
[1] = test system: endogenous oxylipin sEH substrates and products in rat plasma; assay: Oxylipin analysis in rat plasma after sEHI / PDE inhibitor administration (LC-ESI-MS/MS); format: in vivo; conditions: rat plasma 45 min after s.c.; 1 mg/kg, pentoxyphilline 10 mg/kg;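 further: plasma from tail vein blood, oxylipins quantified by LC-ESI-MS/MS against deuterated internal standards following solid-phase extraction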
Sprague-Dawley rats [2] = assay: Acute nociceptive responses in healthy rats, Randall-Selitto mechanical sensitivity assay; format: in vivo, rat; conditions: picrotoxin 0.25 mg/kg s.c.
Sprague-Dawley rats [3] = assay: Acute nociceptive responses in healthy rats, Hargreaves thermal withdrawal latency; format: in vivo, rat; conditions: for antagonism of / interaction with rolipram-produced increase in thermal withdrawal latency: Hargreaves, celecoxib 20, fluconazole 40, micanozole 40, finasteride 10, picrotoxin 0.25 mg/kg
sEH = molecular target: T1, sEH (Homo sapiens, UniProt P34913); assay: sEH inhibition as stated in the general description (earlier tests, '506 patent); format: biochemical
T1 sequence (P34913 1-555): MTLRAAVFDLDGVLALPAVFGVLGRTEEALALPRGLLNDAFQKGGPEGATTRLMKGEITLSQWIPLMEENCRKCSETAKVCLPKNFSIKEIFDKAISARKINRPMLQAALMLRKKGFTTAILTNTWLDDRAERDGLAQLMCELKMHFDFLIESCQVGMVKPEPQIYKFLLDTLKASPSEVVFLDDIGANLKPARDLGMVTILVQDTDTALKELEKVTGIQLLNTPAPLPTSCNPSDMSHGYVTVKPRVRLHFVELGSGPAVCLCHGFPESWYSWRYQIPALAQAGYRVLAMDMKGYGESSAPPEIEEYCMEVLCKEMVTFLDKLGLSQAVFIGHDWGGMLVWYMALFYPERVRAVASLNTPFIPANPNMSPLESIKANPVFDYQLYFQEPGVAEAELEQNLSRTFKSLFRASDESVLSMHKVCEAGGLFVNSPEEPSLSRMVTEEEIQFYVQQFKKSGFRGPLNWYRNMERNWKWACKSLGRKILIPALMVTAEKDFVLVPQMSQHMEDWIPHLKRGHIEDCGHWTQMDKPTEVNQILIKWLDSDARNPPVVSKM

Sprague-Dawley rats [4] = assay: Open field activity; format: in vivo, rat; conditions: 1 h following administration
Description: For the measurement of open field activity animals were placed in an acrylic chamber (40×40×20 cm length×width×height) divided into 100 cm^2 (10×10 cm) sections. The number of crossings were recorded when both hind paws crossed into a neighboring cell.

Compound: CC(=O)CCCCn1c(=O)c2c(ncn2C)n(C)c1=O [Pentoxyphilline]
- 8(9)-EpETE [1]: 1.27 nM
- 8(9)-EpETrE [1]: 6.41 nM
- 8,9-DiHETE [1]: 0.30 nM
- 8,9-DiHETrE [1]: 0.54 nM
- 9(10)-EpOME [1]: 59.92 nM
- 9,10-DiHOME [1]: 34.24 nM
- 10(11)-EpDPE [1]: 7.86 nM
- 10,11-DiHDPE [1]: 0.71 nM
- 11(12)-EpETE [1]: 0.80 nM
- 11(12)-EpETrE [1]: 10.60 nM
- 11,12-DiHETE [1]: 0.45 nM
- 11,12-DiHETrE [1]: 1.77 nM
- 12(13)-EpOME [1]: 87.05 nM
- 12,13-DiHOME [1]: 50.89 nM
- 13(14)-EpDPE [1]: 4.20 nM
- 13,14-DiHDPE [1]: 0.79 nM
- 14(15)-EpETE [1]: 0.69 nM
- 14(15)-EpETrE [1]: 14.76 nM
- 14,15-DiHETE [1]: 1.06 nM
- 14,15-DiHETrE [1]: 1.73 nM
- 16(17)-EpDPE [1]: 5.07 nM
- 16,17-DiHDPE [1]: 2.20 nM
- 17(18)-EpETE [1]: 3.08 nM
- 17,18-DiHETE [1]: 2.81 nM
- 19(20)-EpDPE [1]: 12.04 nM
- 19,20-DiHDPE [1]: 6.00 nM
- Ratio 8(9)-EpETE / 8,9-DiHETE [1]: 4.15
- Ratio 8(9)-EpETrE / 8,9-DiHETrE [1]: 11.91
- Ratio 9(10)-EpOME / 9,10-DiHOME [1]: 1.75
- Ratio 10(11)-EpDPE / 10,11-DiHDPE [1]: 11.13
- Ratio 11(12)-EpETE / 11,12-DiHETE [1]: 1.79
- Ratio 11(12)-EpETrE / 11,12-DiHETrE [1]: 6.00
- Ratio 12(13)-EpOME / 12,13-DiHOME [1]: 1.71
- Ratio 13(14)-EpDPE / 13,14-DiHDPE [1]: 5.30
- Ratio 14(15)-EpETE / 14,15-DiHETE [1]: 0.66
- Ratio 14(15)-EpETrE / 14,15-DiHETrE [1]: 8.52
- Ratio 16(17)-EpDPE / 16,17-DiHDPE [1]: 2.30
- Ratio 17(18)-EpETE / 17,18-DiHETE [1]: 1.10
- Ratio 19(20)-EpDPE / 19,20-DiHDPE [1]: 2.01
- total Di-hydroxyeicosanoid [1]: 423.15 nM
- total Epoxyeicosanoid [1]: 497.36 nM
- total Ratio epoxy/dihydroxy eicosanoids [1]: 1.18

Compound: picrotoxin
- antagonism of the increase in mechanical withdrawal threshold produced by rolipram/AUDA (Sprague-Dawley rats [2]): effectively antagonized
- antagonism of / interaction with rolipram-produced increase in thermal withdrawal latency (Sprague-Dawley rats [3]): partially blocked rolipram
- thermal withdrawal latency / pain related behavior, change from predrug baseline (Sprague-Dawley rats [3]; healthy rats, s.c., about 1 h after administration): ineffective on its own in changing pain related behavior
- antagonism of the increase in thermal withdrawal latency produced by rolipram/AUDA (Sprague-Dawley rats [3]; picrotoxin 0.25 mg/kg s.c.): effectively antagonized

Compound: CCc1ccc2c(-c3cccc(Cl)c3)nc(=O)n(CC)c2n1 [YM976]
- 8(9)-EpETE [1]: 2.74 nM
- 8(9)-EpETrE [1]: 13.59 nM
- 8,9-DiHETE [1]: 0.29 nM
- 8,9-DiHETrE [1]: 0.58 nM
- 9(10)-EpOME [1]: 147.05 nM
- 9,10-DiHOME [1]: 37.07 nM
- 10(11)-EpDPE [1]: 20.16 nM
- 10,11-DiHDPE [1]: 0.82 nM
- 11(12)-EpETE [1]: 2.23 nM
- 11(12)-EpETrE [1]: 22.80 nM
- 11,12-DiHETE [1]: 0.48 nM
- 11,12-DiHETrE [1]: 1.55 nM
- 12(13)-EpOME [1]: 159.31 nM
- 12,13-DiHOME [1]: 57.32 nM
- 13(14)-EpDPE [1]: 10.28 nM
- 13,14-DiHDPE [1]: 0.81 nM
- 14(15)-EpETE [1]: 1.99 nM
- 14(15)-EpETrE [1]: 26.50 nM
- 14,15-DiHETE [1]: 1.19 nM
- 14,15-DiHETrE [1]: 1.84 nM
- 16(17)-EpDPE [1]: 10.41 nM
- 16,17-DiHDPE [1]: 2.22 nM
- 17(18)-EpETE [1]: 4.49 nM
- 17,18-DiHETE [1]: 2.95 nM
- 19(20)-EpDPE [1]: 18.10 nM
- 19,20-DiHDPE [1]: 6.24 nM
- Ratio 8(9)-EpETE / 8,9-DiHETE [1]: 9.62
- Ratio 8(9)-EpETrE / 8,9-DiHETrE [1]: 23.44
- Ratio 9(10)-EpOME / 9,10-DiHOME [1]: 3.97
- Ratio 10(11)-EpDPE / 10,11-DiHDPE [1]: 24.59
- Ratio 11(12)-EpETE / 11,12-DiHETE [1]: 4.69
- Ratio 11(12)-EpETrE / 11,12-DiHETrE [1]: 14.76
- Ratio 12(13)-EpOME / 12,13-DiHOME [1]: 2.78
- Ratio 13(14)-EpDPE / 13,14-DiHDPE [1]: 12.66
- Ratio 14(15)-EpETE / 14,15-DiHETE [1]: 1.67
- Ratio 14(15)-EpETrE / 14,15-DiHETrE [1]: 14.43
- Ratio 16(17)-EpDPE / 16,17-DiHDPE [1]: 4.68
- Ratio 17(18)-EpETE / 17,18-DiHETE [1]: 1.52
- Ratio 19(20)-EpDPE / 19,20-DiHDPE [1]: 2.90
- total Di-hydroxyeicosanoid [1]: 423.59 nM
- total Epoxyeicosanoid [1]: 535.16 nM
- total Ratio epoxy/dihydroxy eicosanoids [1]: 1.26

Compound: OC(Cn1cncn1)(Cn1cncn1)c1ccc(F)cc1F [fluconazole]
- antagonism of / interaction with rolipram-produced increase in thermal withdrawal latency (Sprague-Dawley rats [3]): Noncompetitive antagonism

Compound: Clc1ccc(COC(Cn2ccnc2)c2ccc(Cl)cc2Cl)c(Cl)c1 (stereo not drawn) [micanozole]
- antagonism of / interaction with rolipram-produced increase in thermal withdrawal latency (Sprague-Dawley rats [3]): lack of antagonism

Compound: CC(C)(C)NC(=O)[C@H]1CC[C@H]2[C@@H]3CC[C@H]4NC(=O)C=C[C@]4(C)[C@H]3CC[C@]12C [finasteride]
- antagonism of / interaction with rolipram-produced increase in thermal withdrawal latency (Sprague-Dawley rats [3]): competitive antagonism

Compound: CCCCCCCCCCCCNC(=O)NC12CC3CC(CC(C3)C1)C2 [ADU, N-Adamantyl-N′-dodecyl urea]
- activity as inhibitor of sEH (sEH): particularly high activity on sEH

Compound: CC(=O)N1CCC(NC(=O)Nc2ccc(OC(F)(F)F)cc2)CC1 [TPAU]
- voluntary movement in an open-field chamber (motor depressant effect) (Sprague-Dawley rats [4]): indistinguishable from baseline activity

Compound: CN(C(=O)CCCOc1ccc2[nH]c(=O)ccc2c1)C1CCCCC1 [Cilostamide]
- 8(9)-EpETE [1]: 0.74 nM
- 8(9)-EpETrE [1]: 3.13 nM
- 8,9-DiHETE [1]: 0.27 nM
- 8,9-DiHETrE [1]: 0.47 nM
- 9(10)-EpOME [1]: 32.41 nM
- 9,10-DiHOME [1]: 29.53 nM
- 10(11)-EpDPE [1]: 4.06 nM
- 10,11-DiHDPE [1]: 0.66 nM
- 11(12)-EpETE [1]: 0.45 nM
- 11(12)-EpETrE [1]: 4.44 nM
- 11,12-DiHETE [1]: 0.43 nM
- 11,12-DiHETrE [1]: 1.60 nM
- 12(13)-EpOME [1]: 51.82 nM
- 12,13-DiHOME [1]: 37.98 nM
- 13(14)-EpDPE [1]: 2.23 nM
- 13,14-DiHDPE [1]: 0.73 nM
- 14(15)-EpETE [1]: 0.49 nM
- 14(15)-EpETrE [1]: 7.71 nM
- 14,15-DiHETE [1]: 1.24 nM
- 14,15-DiHETrE [1]: 1.82 nM
- 16(17)-EpDPE [1]: 2.94 nM
- 16,17-DiHDPE [1]: 2.28 nM
- 17(18)-EpETE [1]: 2.66 nM
- 17,18-DiHETE [1]: 3.08 nM
- 19(20)-EpDPE [1]: 8.95 nM
- 19,20-DiHDPE [1]: 5.50 nM
- Ratio 8(9)-EpETE / 8,9-DiHETE [1]: 2.81
- Ratio 8(9)-EpETrE / 8,9-DiHETrE [1]: 6.69
- Ratio 9(10)-EpOME / 9,10-DiHOME [1]: 1.10
- Ratio 10(11)-EpDPE / 10,11-DiHDPE [1]: 6.13
- Ratio 11(12)-EpETE / 11,12-DiHETE [1]: 1.04
- Ratio 11(12)-EpETrE / 11,12-DiHETrE [1]: 2.78
- Ratio 12(13)-EpOME / 12,13-DiHOME [1]: 1.36
- Ratio 13(14)-EpDPE / 13,14-DiHDPE [1]: 3.05
- Ratio 14(15)-EpETE / 14,15-DiHETE [1]: 0.39
- Ratio 14(15)-EpETrE / 14,15-DiHETrE [1]: 4.24
- Ratio 16(17)-EpDPE / 16,17-DiHDPE [1]: 1.29
- Ratio 17(18)-EpETE / 17,18-DiHETE [1]: 0.86
- Ratio 19(20)-EpDPE / 19,20-DiHDPE [1]: 1.63
- total Di-hydroxyeicosanoid [1]: 322.82 nM
- total Epoxyeicosanoid [1]: 1014.12 nM
- total Ratio epoxy/dihydroxy eicosanoids [1]: 3.14
